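How tested: cells in 96-well plates exposed to compound for 48 hours at five concentrations. At the GI50, growth is halved.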 Calls of active or inactive are those of the source. No stated cut-off is given here; in the data, active = GI50 up to about 1.1 µM and inactive = higher.
Experiments:
Assay in all cases: DTP human tumour cell line panel, 48 h
LOX IMVI = system: LOX IMVI
COLO 205 = system: COLO 205
HCC 2998 = system: HCC 2998
RPMI-8226 = system: RPMI-8226
SNB-19 = system: SNB-19
SF-539 = system: SF-539
ACHN = system: ACHN
HOP-92 = system: HOP-92
MDA-N = system: MDA-N
SK-MEL-2 = system: SK-MEL-2
OVCAR-8 = system: OVCAR-8
786-0 = system: 786-0
NCI-H460 = system: NCI-H460
HCT-116 = system: HCT-116
U-251 = system: U-251
OVCAR-4 = system: OVCAR-4
SF-268 = system: SF-268
Malme-3M = system: Malme-3M
A498 = system: A498
MOLT-4 = system: MOLT-4

## COC(=O)[C@@H]1[C@@H]2NC(=S)N[C@@]1(C)Oc1ccccc12
LOX IMVI
  GI50: 37.6 µM (inactive)
COLO 205
  GI50: 37.5 µM (inactive)
HCC 2998
  GI50: 41.6 µM (inactive)
RPMI-8226
  GI50: 48.2 µM (inactive)
SNB-19
  GI50: 49 µM (inactive)
SF-539
  GI50: 37.7 µM (inactive)
ACHN
  GI50: 87.9 µM (inactive)
HOP-92
  GI50: 49.9 µM (inactive)
MDA-N
  GI50: 18.4 µM (inactive)
SK-MEL-2
  GI50: > 100 µM (inactive)
OVCAR-8
  GI50: 51.5 µM (inactive)
786-0
  GI50: 75.7 µM (inactive)
NCI-H460
  GI50: 44.2 µM (inactive)
HCT-116
  GI50: 67.6 µM (inactive)
U-251
  GI50: 38.3 µM (inactive)
OVCAR-4
  GI50: > 100 µM (inactive)
SF-268
  GI50: 39 µM (inactive)
Malme-3M
  GI50: 52 µM (inactive)
A498
  GI50: > 100 µM (inactive)
MOLT-4
  GI50: 0.324 µM (active)

## CCCCCCCCCCCCCCCCCCOCC(COCCOCC[N+]1(CCCCCC(=O)[O-])CCCC1)Oc1ncccn1 (stereo not given)
LOX IMVI
  GI50: 2.88 µM (inactive)
COLO 205
  GI50: 1.11 µM (active)
HCC 2998
  GI50: 2.51 µM (inactive)
RPMI-8226
  GI50: 1.04 µM (active)
SNB-19
  GI50: 2.17 µM (inactive)
SF-539
  GI50: 4.36 µM (inactive)
ACHN
  GI50: 10 µM (inactive)
HOP-92
  GI50: 1.05 µM (active)
MDA-N
  GI50: 10.5 µM (inactive)
SK-MEL-2
  GI50: 6.05 µM (inactive)
OVCAR-8
  GI50: 2.56 µM (inactive)
786-0
  GI50: 7.23 µM (inactive)
NCI-H460
  GI50: 2.36 µM (inactive)
HCT-116
  GI50: 1.82 µM (inactive)
U-251
  GI50: 0.547 µM (active)
OVCAR-4
  GI50: 2.2 µM (inactive)
SF-268
  GI50: 3.51 µM (inactive)
Malme-3M
  GI50: 16.7 µM (inactive)
A498
  GI50: 5.94 µM (inactive)
MOLT-4
  GI50: 4.92 µM (inactive)

## CC(=O)Nc1ccc2cc3[nH]c4cc(NC(C)=O)ccc4c3nc2c1
LOX IMVI
  GI50: > 100 µM (inactive)
COLO 205
  GI50: > 100 µM (inactive)
HCC 2998
  GI50: > 100 µM (inactive)
RPMI-8226
  GI50: > 100 µM (inactive)
SNB-19
  GI50: > 100 µM (inactive)
SF-539
  GI50: > 100 µM (inactive)
ACHN
  GI50: > 100 µM (inactive)
HOP-92
  GI50: > 100 µM (inactive)
MDA-N
  GI50: > 100 µM (inactive)
SK-MEL-2
  GI50: > 100 µM (inactive)
OVCAR-8
  GI50: > 100 µM (inactive)
786-0
  GI50: > 100 µM (inactive)
NCI-H460
  GI50: > 100 µM (inactive)
HCT-116
  GI50: > 100 µM (inactive)
U-251
  GI50: 77.4 µM (inactive)
OVCAR-4
  GI50: > 100 µM (inactive)
SF-268
  GI50: > 100 µM (inactive)
Malme-3M
  GI50: > 100 µM (inactive)
A498
  GI50: > 100 µM (inactive)
MOLT-4
  GI50: 24.9 µM (inactive)

## Cc1cc2occ(S(=O)(=O)NC(=O)Nc3ccc(Cl)cc3)c(=O)c2c(=O)o1
LOX IMVI
  GI50: > 100 µM (inactive)
COLO 205
  GI50: > 100 µM (inactive)
HCC 2998
  GI50: > 100 µM (inactive)
RPMI-8226
  GI50: > 100 µM (inactive)
SNB-19
  GI50: > 100 µM (inactive)
SF-539
  GI50: > 100 µM (inactive)
ACHN
  GI50: 40.2 µM (inactive)
HOP-92
  GI50: > 100 µM (inactive)
MDA-N
  GI50: > 100 µM (inactive)
SK-MEL-2
  GI50: > 100 µM (inactive)
OVCAR-8
  GI50: > 100 µM (inactive)
786-0
  GI50: > 100 µM (inactive)
NCI-H460
  GI50: > 100 µM (inactive)
HCT-116
  GI50: > 100 µM (inactive)
U-251
  GI50: > 100 µM (inactive)
OVCAR-4
  GI50: > 100 µM (inactive)
SF-268
  GI50: > 100 µM (inactive)
Malme-3M
  GI50: > 100 µM (inactive)
A498
  GI50: > 100 µM (inactive)
MOLT-4
  GI50: > 100 µM (inactive)

## O=c1[nH]nc(-c2ccccc2)n1/N=C/c1ccc([N+](=O)[O-])o1
LOX IMVI
  GI50: 3.34 µM (inactive)
COLO 205
  GI50: 4.15 µM (inactive)
HCC 2998
  GI50: 5.26 µM (inactive)
RPMI-8226
  GI50: 2.04 µM (inactive)
SNB-19
  GI50: 12.6 µM (inactive)
SF-539
  GI50: 4.65 µM (inactive)
ACHN
  GI50: 2.42 µM (inactive)
HOP-92
  GI50: 6.71 µM (inactive)
MDA-N
  GI50: 3.25 µM (inactive)
SK-MEL-2
  GI50: 5.21 µM (inactive)
OVCAR-8
  GI50: 3.22 µM (inactive)
786-0
  GI50: 4.88 µM (inactive)
NCI-H460
  GI50: 5.12 µM (inactive)
HCT-116
  GI50: 1.37 µM (inactive)
U-251
  GI50: 6.5 µM (inactive)
OVCAR-4
  GI50: 6.65 µM (inactive)
SF-268
  GI50: 5.57 µM (inactive)
Malme-3M
  GI50: 4.26 µM (inactive)
A498
  GI50: 9.12 µM (inactive)
MOLT-4
  GI50: 0.962 µM (active)

## CCn1c2ccc(C(=O)CCCN3CCCCC3)cc2c2cc(C(=O)CCCN3CCCCC3)ccc21
LOX IMVI
  GI50: 1.86 µM (inactive)
COLO 205
  GI50: 2.67 µM (inactive)
HCC 2998
  GI50: 5.94 µM (inactive)
RPMI-8226
  GI50: 1.75 µM (inactive)
SNB-19
  GI50: 2.58 µM (inactive)
SF-539
  GI50: 1.77 µM (inactive)
ACHN
  GI50: 1.74 µM (inactive)
HOP-92
  GI50: 10.4 µM (inactive)
MDA-N
  GI50: 2.22 µM (inactive)
SK-MEL-2
  GI50: 1.78 µM (inactive)
OVCAR-8
  GI50: 1.44 µM (inactive)
786-0
  GI50: 0.938 µM (active)
NCI-H460
  GI50: 0.998 µM (active)
HCT-116
  GI50: 1.78 µM (inactive)
U-251
  GI50: 2.13 µM (inactive)
OVCAR-4
  GI50: 1.33 µM (inactive)
SF-268
  GI50: 4.94 µM (inactive)
Malme-3M
  GI50: 6.85 µM (inactive)
A498
  GI50: 5.7 µM (inactive)
MOLT-4
  GI50: 0.524 µM (active)

## O=C1NC(=O)C(c2c[nH]c3ccccc23)=C1c1cn(C(c2ccccc2)(c2ccccc2)c2ccccc2)cn1
LOX IMVI
  GI50: 6.95 µM (inactive)
COLO 205
  GI50: 3.73 µM (inactive)
HCC 2998
  GI50: 4.63 µM (inactive)
RPMI-8226
  GI50: 3.13 µM (inactive)
SNB-19
  GI50: 11.3 µM (inactive)
SF-539
  GI50: 15.4 µM (inactive)
ACHN
  GI50: 4.8 µM (inactive)
HOP-92
  GI50: 7.13 µM (inactive)
MDA-N
  GI50: 4.75 µM (inactive)
SK-MEL-2
  GI50: 11.2 µM (inactive)
OVCAR-8
  GI50: 5.33 µM (inactive)
786-0
  GI50: 6.52 µM (inactive)
NCI-H460
  GI50: 3.66 µM (inactive)
HCT-116
  GI50: 3.34 µM (inactive)
U-251
  GI50: 4.25 µM (inactive)
OVCAR-4
  GI50: 4.06 µM (inactive)
SF-268
  GI50: 11.7 µM (inactive)
Malme-3M
  GI50: 10.4 µM (inactive)
A498
  GI50: 5.32 µM (inactive)
MOLT-4
  GI50: 2.48 µM (inactive)

## CCCC1(NC(=O)C(F)(F)F)CC(OC)OC2COC(c3ccccc3)OC21 (stereo not given)
LOX IMVI
  GI50: 64.9 µM (inactive)
COLO 205
  GI50: 21.1 µM (inactive)
HCC 2998
  GI50: 52.2 µM (inactive)
RPMI-8226
  GI50: > 10 µM (inactive)
SNB-19
  GI50: > 100 µM (inactive)
SF-539
  GI50: > 100 µM (inactive)
ACHN
  GI50: 49.3 µM (inactive)
HOP-92
  GI50: 9.23 µM (inactive)
MDA-N
  GI50: 59.4 µM (inactive)
SK-MEL-2
  GI50: 26.8 µM (inactive)
OVCAR-8
  GI50: 51.1 µM (inactive)
786-0
  GI50: 76.2 µM (inactive)
NCI-H460
  GI50: 34 µM (inactive)
HCT-116
  GI50: 42.1 µM (inactive)
U-251
  GI50: 46.7 µM (inactive)
OVCAR-4
  GI50: 6.25 µM (inactive)
SF-268
  GI50: > 100 µM (inactive)
Malme-3M
  GI50: 44.7 µM (inactive)
A498
  GI50: > 100 µM (inactive)
MOLT-4
  GI50: 26.2 µM (inactive)

## Cc1nnc2sc(-c3ccc([N+](=O)[O-])o3)nn12
LOX IMVI
  GI50: 3.56 µM (inactive)
COLO 205
  GI50: 13.2 µM (inactive)
HCC 2998
  GI50: 12.5 µM (inactive)
RPMI-8226
  GI50: 10.5 µM (inactive)
SNB-19
  GI50: 18.8 µM (inactive)
SF-539
  GI50: 4.84 µM (inactive)
ACHN
  GI50: 11.2 µM (inactive)
HOP-92
  GI50: 15.9 µM (inactive)
MDA-N
  GI50: 5.96 µM (inactive)
SK-MEL-2
  GI50: 10.4 µM (inactive)
OVCAR-8
  GI50: 11.4 µM (inactive)
786-0
  GI50: 10.3 µM (inactive)
NCI-H460
  GI50: 17.9 µM (inactive)
HCT-116
  GI50: 6.46 µM (inactive)
U-251
  GI50: 14.7 µM (inactive)
OVCAR-4
  GI50: 15 µM (inactive)
SF-268
  GI50: 13.2 µM (inactive)
Malme-3M
  GI50: 4.08 µM (inactive)
A498
  GI50: 45.5 µM (inactive)
MOLT-4
  GI50: 3.15 µM (inactive)

## O=C(O)c1cccc(CC(Br)C(=O)O)c1 (stereo not given)
LOX IMVI
  GI50: > 100 µM (inactive)
COLO 205
  GI50: > 100 µM (inactive)
HCC 2998
  GI50: > 100 µM (inactive)
RPMI-8226
  GI50: > 100 µM (inactive)
SNB-19
  GI50: > 100 µM (inactive)
SF-539
  GI50: > 100 µM (inactive)
ACHN
  GI50: > 100 µM (inactive)
HOP-92
  GI50: > 100 µM (inactive)
MDA-N
  GI50: > 100 µM (inactive)
SK-MEL-2
  GI50: > 100 µM (inactive)
OVCAR-8
  GI50: > 100 µM (inactive)
786-0
  GI50: > 100 µM (inactive)
NCI-H460
  GI50: > 100 µM (inactive)
HCT-116
  GI50: > 100 µM (inactive)
U-251
  GI50: > 100 µM (inactive)
OVCAR-4
  GI50: > 100 µM (inactive)
SF-268
  GI50: > 100 µM (inactive)
Malme-3M
  GI50: > 100 µM (inactive)
A498
  GI50: > 100 µM (inactive)
MOLT-4
  GI50: > 100 µM (inactive)

Reference: ChEMBL document CHEMBL1201862, “PubChem BioAssay data set” (2004)
